Measured values taken from patent publication EP0026409A1, “Combinations of active ingredients, pharmaceutical preparations, as well as their preparation” (F. HOFFMANN-LA ROCHE & CO. Aktiengesellschaft, priority 1979, dated 1981).
Converted amounts (≈) assume the structure as drawn. Where two headings read alike, the source gives them in different places. Blank lines part the entries; values can stand above or below the compound they belong to.

Legend:
Assay in all cases: In vitro activity: M.I.C. on nutrient agar plates, surface inoculation, 24 h at 37°C
Type in all cases: cell-based
Streptococcus pyogenes = conditions: S. pyogenes, Peptid or Antibiotikum alone
From the text: (§1) Es wurden konzentrierte Lösungen von Gemischen der Verbindungen der Formel I und dem Antibiotikum in den gewünschten Gewichtsverhältnissen hergestellt, die dann beliebig verdünnt wurden. Aliquote Teile der verdünnten Lösungen wurden mit einem geeigneten Nähragar in Petrischalen gemischt. Zum Vergleich wurden ähnliche Agar-Schalen hergestellt, die ausser dem Nährmedium die Verbindung I bzw. das Antibiotikum alleine enthielten. Nach Oberflächeninokulation mit den Mikroorganismen wurde 24 Stunden bei 37°C aufbewahrt und dann die minimale Hemmkonzentration (M.I.C.) bestimmt und die F.I.C.-Indexe berechnet. Die Ergebnisse unter Verwendung repräsentativer Verbindungen der Formel I, nämlich (1R)-1-(N-Sarcosyl-L-norvalyl-L-norvalylamino)-ethylphosphonsäure, und (1R)-1-(N-Methyl-L-leucyl-L-norvalyl-L-norvalylamino)-ethylphosphonsäure und repräsentativer Antibiotika, nämlich Cephalexin und D-Cycloserin, sind in den folgenden Tabellen I-III zusammengestellt..

Streptococcus faecalis = conditions: S. faecalis, Peptid or Antibiotikum alone
From the text: as §1

Staphylococcus aureus = conditions: S. aureus, Peptid or Antibiotikum alone; for MIC: Staphylococcus aureus, 24 h
From the text: as §1

[1] = tested on: Streptococcus dysgalactiae; conditions: S.dysgalactiae, Peptid or Antibiotikum alone
From the text: as §1

Escherichia coli = conditions: E. coli, Peptid or Antibiotikum alone
From the text: as §1

Streptococcus agalactiae = conditions: S.agalactiae, Peptid or Antibiotikum alone
From the text: as §1

Proteus mirabilis = conditions: P. mirabilis, Peptid or Antibiotikum alone
From the text: as §1

Structure (SMILES): CCC[C@H](NC(=O)[C@H](CC(C)C)NC)C(=O)N[C@@H](CCC)C(=O)N[C@@H](C)P(=O)(O)O [(1R)-1-(N-Methyl-L-leucyl-L-norvalyl-L-norvalylamino)-ethylphosphonsäure]
- M.I.C. (Streptococcus pyogenes): >64 µg/mL
- M.I.C. (Streptococcus faecalis): 2 µg/mL
- M.I.C. (Staphylococcus aureus): >64 µg/mL

Structure (SMILES): CCC[C@H](NC(=O)CNC)C(=O)N[C@@H](CCC)C(=O)N[C@@H](C)P(=O)(O)O [(1R)-1-(N-Sarcosyl-L-norvalyl-L-norvalylamino)-ethylphosphonsäure]
- M.I.C. [1]: 2.8 µg/mL
- M.I.C. (Escherichia coli): 2 µg/mL
- M.I.C. (Streptococcus agalactiae): 45.2 µg/mL
- M.I.C. (Streptococcus pyogenes): 90.5 µg/mL
- M.I.C. (Streptococcus faecalis): 90.5 µg/mL
- M.I.C. (Proteus mirabilis): >128 µg/mL
- M.I.C. (Staphylococcus aureus): >128 µg/mL

Structure (SMILES): CC1=C(C(=O)O)N2C(=O)[C@@H](NC(=O)[C@H](N)c3ccccc3)[C@H]2SC1 [Cephalexin]
- M.I.C. (Streptococcus pyogenes): 8 µg/mL
- MIC (Streptococcus pyogenes; Streptococcus pyogenes, 24 h): 11.3 µg/mL (≈ 32.5 µM)
- MIC (Streptococcus faecalis; Enterococcus faecalis, 24 h): 128 µg/mL (≈ 368 µM)
- MIC (Proteus mirabilis; Proteus mirabilis, 24 h): 22.6 µg/mL (≈ 65.1 µM)
- M.I.C. (Staphylococcus aureus): 64 µg/mL
- MIC (Staphylococcus aureus): 45.2 µg/mL (≈ 130 µM)

- MIC ([1]; Streptococcus dysgalactiae, 24 h): 128 µg/mL (≈ 1250 µM)
- MIC (Escherichia coli; Escherichia coli, 24 h): 32 µg/mL (≈ 313 µM)
- MIC (Streptococcus agalactiae; Streptococcus agalactiae, 24 h): 90.5 µg/mL (≈ 886 µM)
- MIC (Staphylococcus aureus; read-out: M.I.C.): 16 µg/mL (≈ 157 µM)
Structure (SMILES): N[C@@H]1CONC1=O [D-Cycloserin]
